Data: US12642809B2, “Fucosylation and immune modulation in cancer” (H. LEE MOFFITT CANCER CENTER AND RESEARCH INSTITUTE, INC., priority 2019, dated 2026)

Legend:
SM1 tumors = assay: CD4+/CD8+ T cell immunodepletion, SM1 model; type: in vivo, mouse; conditions: CD4+ T cell-depleted mice
Method: Single-cell suspensions from tumor and spleen tissue were stained with Live/Dead Zombie NIR (Biolegend, (San Diego, CA)) at 1:1,000 in PBS for 20 min. Cell suspensions were spun down and stained with the following antibodies: APC anti-mouse CD3 (0.5 μg/mL, BD Biosciences (San Jose, CA)), Pacific Blue anti-mouse CD4 ([…], BD Biosciences (San Jose, CA)), BV785 anti-mouse CD8 (0.5 μg/mL, BD Biosciences (San Jose, CA)), PerCP anti-mouse CD25 ([…], BD Biosciences (San Jose, CA)), FITC anti-mouse F4/80 (0.5 μg/mL, BD Biosciences (San Jose, CA)), PeCy7 anti-mouse CD11c (0.5 μg/mL, BD Biosciences (San Jose, CA)), PE anti-mouse NK1.1 (0.5 μg/mL, BD Biosciences (San Jose, CA)), PE anti-mouse DX5 (0.5 μg/mL, BD Biosciences (San Jose, CA)), PerCP-Cy5.5 anti-mouse CD11b (0.5 μg/mL, BD Biosciences (San Jose, CA)). After staining, the cells were washed and fixed (2% formaldehyde), followed by another wash and flow cytometric analysis. The compensation controls were prepared using 0.5 μg/ml. of each antibody with beads UltraComp eBeads™, (ThermoFisher Scientific (Waltham, MA)). […] Flow cytometric data was further analyzed using FlowJo™ analysis software (BD Biosciences (San Jose, CA)). TIL profiles were determined as a measure of TIL subpopulations per gram of tumor tissues or % of total splenocytes. […]

SW1 tumors [1] = assay: CD4+/CD8+ T cell immunodepletion, SW1 model; type: in vivo, mouse
Method: Single-cell suspensions from tumor and spleen tissue were stained with Live/Dead Zombie NIR (Biolegend, (San Diego, CA)) at 1:1,000 in PBS for 20 min. Cell suspensions were spun down and stained with the following antibodies: APC anti-mouse CD3 (0.5 μg/mL, BD Biosciences (San Jose, CA)), Pacific Blue anti-mouse CD4 ([…], BD Biosciences (San Jose, CA)), BV785 anti-mouse CD8 (0.5 μg/mL, BD Biosciences (San Jose, CA)), PerCP anti-mouse CD25 ([…], BD Biosciences (San Jose, CA)), FITC anti-mouse F4/80 (0.5 μg/mL, BD Biosciences (San Jose, CA)), PeCy7 anti-mouse CD11c (0.5 μg/mL, BD Biosciences (San Jose, CA)), PE anti-mouse NK1.1 (0.5 μg/mL, BD Biosciences (San Jose, CA)), PE anti-mouse DX5 (0.5 μg/mL, BD Biosciences (San Jose, CA)), PerCP-Cy5.5 anti-mouse CD11b (0.5 μg/mL, BD Biosciences (San Jose, CA)). After staining, the cells were washed and fixed (2% formaldehyde), followed by another wash and flow cytometric analysis. The compensation controls were prepared using 0.5 μg/ml. of each antibody with beads UltraComp eBeads™, (ThermoFisher Scientific (Waltham, MA)). All samples were subject to flow cytometric analysis using a LSR Flow Cytometer (BD Biosciences (San Jose, CA)). Flow cytometric data was further analyzed using FlowJo™ analysis software (BD Biosciences (San Jose, CA)). TIL profiles were determined as a measure of TIL subpopulations per gram of tumor tissues or % of total splenocytes.
Three days prior to tumor engraftment, PBS (control) or ˜300 μg α-CD4 (20 mg/kg, for immunodepletion, GK1.5, Bioxcell (West Lebanon, NH)) or α-CD8 (20 mg/kg, for immunodepletion, 2.43, Bioxcell (West Lebanon, NH)) was administered by intraperitoneal injection into the indicated cohorts of mice. Injections of immunodepletion antibody or PBS were continued every 3-4 days until endpoint. Syngeneic recipient C3H/HeN female or C57BL/6 male mice were injected with SW1 or SMI cells, respectively. After approximately 7 days, when the tumors reached ˜150 mm^3, the mice were either supplemented with or without 100 mM L-fucose (Biosynth (Oak Terrace, IL)) via drinking water, which was provided ad libitum. When the tumors reached ˜2 cm^3, the animals were sacrificed, and the tumors were either processed for flow cytometric profiling or for histological analysis as indicated.

HLA-DRB1 = assay: qRT-PCR and immunoblot of HLA-DRB1 in melanoma cells; type: cell-based, human; conditions: 250 μM, panel of melanoma cell lines
Method: Cells were lysed on ice in RIPA lysis buffer (25 mM Tris-HCl pH 7.6, 150 mM NaCl, 5 mM EDTA, 1% NP-40 or 1% Triton X-100, 1% sodium deoxycholate, 0.1% SDS in diH2O+protease and phosphatase inhibitors (ThermoFisher Scientific (Waltham, MA)), briefly sonicated, pelleted, and the resulting lysates were normalized by protein concentration using DC assay (BioRad Laboratories, (Hercules, CA)). The indicated samples were subjected to (12%) SDS-PAGE and immunoblot analysis using the indicated antibodies. Immunoblot imaging and analysis was performed using either an Odyssey FC scanner and ImageStudio (LiCor Biosciences, Lincoln, NE) or film.
RNA from cells subjected to the indicated treatments was extracted using Gene Elute Mammalian Total RNA Extraction System (Millipore Sigma (St. Louis, MO)). RNA was reversed transcribed to cDNA using High-Capacity cDNA Reverse Transcription Kit (ThermoFisher Scientific (Waltham, MA)). qRT-PCR analysis was performed using FastStart Universal SYBR Green Master Mix (Rox) (Roche Diagnostics, (Indianapolis, IN)) using a BioRad CFX96 Real-time system (BioRad Laboratories, (Hercules, CA)). The qRT-PCR cycles used were as follows: 95° C. for 10 min, 35 cycles of 95° C. for 15 seconds, 55° C. for 60 seconds, and 72° C. for 30 seconds. Expression of the indicated genes was normalized to histone H3A expression. […]

SW1 tumors [2] = assay: SW1 tumors in immunodeficient NSG mice fed with or without L-fuc; type: in vivo, mouse
Method: Four-to-six-week-old female C3HeN and male C57BL6 mice were purchased from Charles Rivers Laboratories for the indicated experiments. Four-to-six-week-old male NSG mice from the Lau laboratory breeding colony were used for the indicated experiments. Mice were housed in the Comparative Medicine Facility at H. Lee Moffitt Cancer Center and Research Institute. Mouse tumor volumes were measured using length, width and depth divided by 2. Generally, 10 mice were assigned to each indicated treatment cohort, and 1×10^6 melanoma cells were subcutaneously injected into the right rear flanks of the recipient mice. At each experimental endpoint, mice were humanely euthanized using CO2 inhalation in accordance to the American Veterinary Medical Association guidelines. […] All experiments were approved by the Institutional Animal Care and Use Committee (IACUC) in accordance with the National Research Council guidelines.
SW1 murine mouse melanoma cells were subcutaneously injected into the right rear flanks of NSG mice. After 7 days, when the tumors reached ˜150 mm^3, the mice were either supplemented with or without 100 mM L-fucose (Biosynth (Oak Terrace, IL)) via drinking water, which was provided ad libitum. When the tumors reached 2 cm^3, the animals were sacrificed.

1205Lu melanoma cells = assay: LDH-release NK cell killing of pre-treated 1205Lu melanoma cells; type: cell-based; conditions: 250 μM pre-treatment, 8 h co-culture, immortalized and primary human NK cells
Method: The possibility that tumor fucosylation can directly activate the tumor cell-killing activity of NK cells was explored. To assay for this possibility, a lactate dehydrogenase (LDH)-release-based assay was used in which the fucosylation of LU1205 melanoma cells was modulated prior to co-culture with NK cells. Specifically, primary NK cells isolates (5A) or immortalized NK92 cell line (5B) were co-cultured with 1205Lu melanoma cells that were pre-treated with DMSO, 250 μM pan-fucosyltransferase inhibitor (FUTi), or 250 μM L-fucose for 8 hours. Non-radioactive LDH-release cytotoxicity assay was performed to measure extent of NK cell-mediated killing. […] Immunoblot analysis using AAL lectin (another fucose-binding lectin) was performed to confirm the effects of FUTi (5C) or L-fucose (5D) on 1205Lu cells (96 h treatment). (•: […]) (*: […]).

## C[C@H](O)[C@@H](O)[C@@H](O)[C@H](O)C=O [L-fucose]
SM1 tumors
  L-fuc-triggered suppression of SM1 tumors and TIL increases: abrogated
SW1 tumors [1]; CD4+ T cell-depleted mice
  L-fuc-induced tumor suppression and increase in total TILs: abrogated tumor suppression
  increases in intratumoral NK, DC and CD8+ T cells: completely blunted
SW1 tumors [1]; CD4+ T cell-depleted mice, listed as L-fuc
  L-fuc-induced tumor suppression and increase in total TILs: completely abrogated
SW1 tumors [1]; CD8+ T cell-depleted mice
  reduced tumor growth: ~50%
SW1 tumors [1]; control (PBS-injected) mice
  reduced tumor growth: ~60%
SW1 tumors [1]; control mice
  increase in intratumoral CD8+ T cells: ~10 fold
  increase in intratumoral DC: ~10 fold
  increase in intratumoral NK cells: ~3 fold
HLA-DRB1
  HLA-DRB1 mRNA and protein levels: neither HLA-DRB1 mRNA nor protein levels were altered
SW1 tumors [2]
  tumor growth with vs without L-fuc: no significant differences
1205Lu melanoma cells
  NK cell-mediated tumor-cell killing: sufficient to induce the tumor-cell killing activity
